Measured values as given in ChEMBL document CHEMBL1139192, “Novel bis(indolyl)maleimide pyridinophanes that are potent, selective inhibitors of glycogen synthase kinase-3” (Bioorg Med Chem Lett, 2007).

Key:
[1] = target: Receptor-type tyrosine-protein kinase FLT3 (Homo sapiens) (UniProt P36888); assay: Residual activity of human Flt3 at 1 uM relative to control
[2] = target: Serine/threonine-protein kinase N2 (Homo sapiens) (UniProt Q16513); assay: Residual activity of human PRK2 at 1 uM relative to control
[3] = target: Fibroblast growth factor receptor 3 (Homo sapiens) (UniProt P22607); assay: Residual activity of human FGFR3 at 1 uM relative to control
Fibroblast growth factor receptor 3 (Homo sapiens), sequence (P22607 23-806 limits assumed): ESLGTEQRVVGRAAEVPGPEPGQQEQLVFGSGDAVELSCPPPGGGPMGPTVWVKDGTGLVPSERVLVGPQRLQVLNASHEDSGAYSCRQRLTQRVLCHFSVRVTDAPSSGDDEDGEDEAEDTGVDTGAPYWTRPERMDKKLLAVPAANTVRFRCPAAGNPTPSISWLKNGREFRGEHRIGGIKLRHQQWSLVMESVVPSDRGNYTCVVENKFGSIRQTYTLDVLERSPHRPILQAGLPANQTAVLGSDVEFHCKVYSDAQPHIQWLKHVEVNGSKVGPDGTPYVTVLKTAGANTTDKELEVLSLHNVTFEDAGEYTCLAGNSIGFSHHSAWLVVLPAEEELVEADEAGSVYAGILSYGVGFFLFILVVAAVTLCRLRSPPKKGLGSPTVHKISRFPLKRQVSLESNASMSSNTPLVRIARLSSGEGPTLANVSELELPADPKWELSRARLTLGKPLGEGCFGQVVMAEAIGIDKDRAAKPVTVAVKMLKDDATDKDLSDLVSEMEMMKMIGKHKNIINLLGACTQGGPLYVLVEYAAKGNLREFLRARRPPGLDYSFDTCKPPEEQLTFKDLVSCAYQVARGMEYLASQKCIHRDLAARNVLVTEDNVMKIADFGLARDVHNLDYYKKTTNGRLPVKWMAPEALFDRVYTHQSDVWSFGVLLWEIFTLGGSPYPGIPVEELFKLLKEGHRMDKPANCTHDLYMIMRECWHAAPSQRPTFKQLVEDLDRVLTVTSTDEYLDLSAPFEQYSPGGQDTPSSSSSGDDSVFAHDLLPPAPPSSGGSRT

[4] = target: RAC-beta serine/threonine-protein kinase (Homo sapiens) (UniProt P31751); assay: Residual activity of human PKBbeta at 1 uM relative to control
RAC-beta serine/threonine-protein kinase (Homo sapiens), sequence (P31751 whole entry): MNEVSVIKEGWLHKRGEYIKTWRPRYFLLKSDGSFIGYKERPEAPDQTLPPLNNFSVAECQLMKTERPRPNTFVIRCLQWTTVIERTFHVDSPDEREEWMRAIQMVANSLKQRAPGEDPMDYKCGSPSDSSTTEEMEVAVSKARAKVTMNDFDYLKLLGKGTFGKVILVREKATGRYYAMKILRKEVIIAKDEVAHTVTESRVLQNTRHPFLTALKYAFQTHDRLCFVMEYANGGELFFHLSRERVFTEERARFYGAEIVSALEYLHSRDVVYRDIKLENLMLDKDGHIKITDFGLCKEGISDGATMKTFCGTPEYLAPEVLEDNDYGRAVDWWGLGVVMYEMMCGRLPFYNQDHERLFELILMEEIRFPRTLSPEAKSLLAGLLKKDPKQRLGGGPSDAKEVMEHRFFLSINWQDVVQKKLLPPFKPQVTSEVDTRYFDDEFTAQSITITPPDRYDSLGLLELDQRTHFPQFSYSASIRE

[5] = target: T1, Inhibitor of nuclear factor kappa-B kinase subunit alpha (Homo sapiens) (UniProt O15111); assay: Residual activity of human IKKalpha at 1 uM relative to control
T1 sequence (whole entry): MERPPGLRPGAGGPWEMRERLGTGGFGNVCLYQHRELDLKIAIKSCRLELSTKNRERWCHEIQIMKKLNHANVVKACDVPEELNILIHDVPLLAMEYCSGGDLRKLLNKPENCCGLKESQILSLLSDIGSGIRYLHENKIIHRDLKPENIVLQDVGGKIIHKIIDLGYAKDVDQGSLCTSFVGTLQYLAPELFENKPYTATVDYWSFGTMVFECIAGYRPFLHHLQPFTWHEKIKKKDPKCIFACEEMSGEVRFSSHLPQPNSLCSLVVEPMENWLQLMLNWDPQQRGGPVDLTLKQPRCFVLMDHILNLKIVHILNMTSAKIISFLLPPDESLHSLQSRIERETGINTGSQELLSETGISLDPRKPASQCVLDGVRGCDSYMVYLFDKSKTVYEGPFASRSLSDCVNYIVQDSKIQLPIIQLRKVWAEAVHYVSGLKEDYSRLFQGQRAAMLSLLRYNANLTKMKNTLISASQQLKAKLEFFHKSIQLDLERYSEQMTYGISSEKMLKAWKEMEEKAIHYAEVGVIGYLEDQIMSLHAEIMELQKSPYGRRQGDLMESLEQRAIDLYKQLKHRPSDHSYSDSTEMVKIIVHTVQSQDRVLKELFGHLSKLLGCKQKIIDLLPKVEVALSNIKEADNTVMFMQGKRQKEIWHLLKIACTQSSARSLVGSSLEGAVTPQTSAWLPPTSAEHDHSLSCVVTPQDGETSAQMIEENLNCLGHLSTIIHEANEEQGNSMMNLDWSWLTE

[6] = target: T2, Inhibitor of nuclear factor kappa-B kinase subunit beta (Homo sapiens) (UniProt O14920); assay: Residual activity of human IKK-beta at 1 uM relative to control
T2 sequence (whole entry): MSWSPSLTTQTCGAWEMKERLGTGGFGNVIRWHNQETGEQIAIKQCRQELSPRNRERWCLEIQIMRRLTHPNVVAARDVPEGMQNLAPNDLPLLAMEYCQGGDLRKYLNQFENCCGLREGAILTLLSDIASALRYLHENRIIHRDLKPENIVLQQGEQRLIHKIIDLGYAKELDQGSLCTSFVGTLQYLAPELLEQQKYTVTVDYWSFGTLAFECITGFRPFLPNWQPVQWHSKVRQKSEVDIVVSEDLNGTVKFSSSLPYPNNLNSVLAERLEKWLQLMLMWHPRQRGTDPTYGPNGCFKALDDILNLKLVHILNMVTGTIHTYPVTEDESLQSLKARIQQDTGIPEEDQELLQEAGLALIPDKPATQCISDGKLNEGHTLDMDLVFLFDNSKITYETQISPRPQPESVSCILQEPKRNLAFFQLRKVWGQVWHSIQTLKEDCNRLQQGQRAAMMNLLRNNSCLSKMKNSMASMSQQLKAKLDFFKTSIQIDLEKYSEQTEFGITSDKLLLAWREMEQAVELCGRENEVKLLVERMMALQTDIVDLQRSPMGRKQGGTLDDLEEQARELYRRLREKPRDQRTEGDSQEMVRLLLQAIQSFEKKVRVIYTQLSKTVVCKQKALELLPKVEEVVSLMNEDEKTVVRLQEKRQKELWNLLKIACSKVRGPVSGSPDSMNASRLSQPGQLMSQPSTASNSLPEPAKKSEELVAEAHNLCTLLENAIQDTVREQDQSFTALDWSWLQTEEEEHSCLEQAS

[7] = target: Protein kinase C theta type (Homo sapiens, UniProt Q04759); assay: Residual activity of human PKCtheta at 1 uM relative to control
Protein kinase C theta type, sequence (Q04759 whole entry, looked up): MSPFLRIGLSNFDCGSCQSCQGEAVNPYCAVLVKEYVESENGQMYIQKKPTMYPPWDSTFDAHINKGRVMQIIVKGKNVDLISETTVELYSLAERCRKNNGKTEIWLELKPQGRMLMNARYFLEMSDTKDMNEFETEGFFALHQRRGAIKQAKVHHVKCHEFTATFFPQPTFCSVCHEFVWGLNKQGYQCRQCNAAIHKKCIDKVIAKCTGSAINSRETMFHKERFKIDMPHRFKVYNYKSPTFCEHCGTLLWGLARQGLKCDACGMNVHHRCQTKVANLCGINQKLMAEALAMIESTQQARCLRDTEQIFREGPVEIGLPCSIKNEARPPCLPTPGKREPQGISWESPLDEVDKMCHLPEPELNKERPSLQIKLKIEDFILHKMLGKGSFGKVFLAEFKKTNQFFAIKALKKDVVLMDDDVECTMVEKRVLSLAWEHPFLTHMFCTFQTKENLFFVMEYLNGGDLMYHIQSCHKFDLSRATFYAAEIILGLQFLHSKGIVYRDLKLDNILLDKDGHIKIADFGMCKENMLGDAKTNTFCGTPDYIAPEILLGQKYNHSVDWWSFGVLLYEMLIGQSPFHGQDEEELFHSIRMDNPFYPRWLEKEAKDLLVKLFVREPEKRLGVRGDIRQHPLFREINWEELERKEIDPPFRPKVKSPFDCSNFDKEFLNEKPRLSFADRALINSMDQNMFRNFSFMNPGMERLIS

[8] = species on record: Homo sapiens; assay: Residual activity of human CDK3/Cyclin E at 1 uM relative to control
[9] = target: Tyrosine-protein kinase Lck (Homo sapiens) (UniProt P06239); assay: Inhibition of human Lck at 1 uM relative to control; values are per cent of control
Tyrosine-protein kinase Lck (Homo sapiens), sequence (P06239 2-509 limits assumed): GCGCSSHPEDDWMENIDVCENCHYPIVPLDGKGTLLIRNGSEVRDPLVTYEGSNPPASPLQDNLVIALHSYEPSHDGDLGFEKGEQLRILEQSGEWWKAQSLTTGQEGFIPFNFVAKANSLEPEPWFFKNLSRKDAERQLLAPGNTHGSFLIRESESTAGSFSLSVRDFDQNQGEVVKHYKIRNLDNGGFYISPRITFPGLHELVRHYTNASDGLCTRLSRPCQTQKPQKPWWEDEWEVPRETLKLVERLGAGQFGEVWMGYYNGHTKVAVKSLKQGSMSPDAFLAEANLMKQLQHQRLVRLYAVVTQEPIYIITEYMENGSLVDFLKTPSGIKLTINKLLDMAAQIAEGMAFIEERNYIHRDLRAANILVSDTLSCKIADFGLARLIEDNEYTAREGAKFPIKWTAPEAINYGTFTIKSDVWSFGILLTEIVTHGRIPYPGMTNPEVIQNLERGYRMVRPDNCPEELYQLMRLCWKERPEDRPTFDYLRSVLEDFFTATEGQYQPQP

[10] = target: Ribosomal protein S6 kinase alpha-5 (Homo sapiens, UniProt O75582); assay: Inhibition of human MSK1 at 1 uM relative to control; values are per cent of control
Ribosomal protein S6 kinase alpha-5, sequence (O75582 whole entry, looked up): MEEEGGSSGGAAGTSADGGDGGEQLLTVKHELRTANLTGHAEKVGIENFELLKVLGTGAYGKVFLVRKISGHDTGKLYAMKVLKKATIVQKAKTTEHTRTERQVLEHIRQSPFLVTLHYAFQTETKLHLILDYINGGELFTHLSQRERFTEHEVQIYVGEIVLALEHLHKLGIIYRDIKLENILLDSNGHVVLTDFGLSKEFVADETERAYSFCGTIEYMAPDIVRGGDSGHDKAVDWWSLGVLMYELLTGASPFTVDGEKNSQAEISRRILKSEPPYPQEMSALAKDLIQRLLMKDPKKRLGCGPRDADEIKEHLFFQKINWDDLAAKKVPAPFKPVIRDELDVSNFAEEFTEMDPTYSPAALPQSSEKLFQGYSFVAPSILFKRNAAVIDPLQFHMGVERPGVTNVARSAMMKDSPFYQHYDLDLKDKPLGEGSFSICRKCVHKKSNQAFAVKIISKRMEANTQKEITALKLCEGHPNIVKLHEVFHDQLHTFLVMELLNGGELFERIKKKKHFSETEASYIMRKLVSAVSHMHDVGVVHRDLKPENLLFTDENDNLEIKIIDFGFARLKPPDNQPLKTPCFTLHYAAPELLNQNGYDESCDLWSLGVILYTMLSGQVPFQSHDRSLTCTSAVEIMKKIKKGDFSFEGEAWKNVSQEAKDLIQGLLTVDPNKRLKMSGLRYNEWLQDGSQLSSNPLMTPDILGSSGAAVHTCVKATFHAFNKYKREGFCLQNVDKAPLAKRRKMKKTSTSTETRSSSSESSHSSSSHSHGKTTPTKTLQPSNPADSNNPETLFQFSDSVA

[11] = species on record: Mus musculus; assay: Inhibition of mouse MAPK2 at 1 uM relative to control; values are per cent of control
[12] = target: Mitogen-activated protein kinase 11 (Homo sapiens) (UniProt Q15759); assay: Inhibition of human SAPK2b at 1 uM relative to control; values are per cent of control
[13] = target: Mitogen-activated protein kinase 8 (Homo sapiens) (UniProt P45983); assay: Inhibition of human JNK1alpha1 at 1 uM relative to control; values are per cent of control
Mitogen-activated protein kinase 8 (Homo sapiens), sequence (P45983 whole entry): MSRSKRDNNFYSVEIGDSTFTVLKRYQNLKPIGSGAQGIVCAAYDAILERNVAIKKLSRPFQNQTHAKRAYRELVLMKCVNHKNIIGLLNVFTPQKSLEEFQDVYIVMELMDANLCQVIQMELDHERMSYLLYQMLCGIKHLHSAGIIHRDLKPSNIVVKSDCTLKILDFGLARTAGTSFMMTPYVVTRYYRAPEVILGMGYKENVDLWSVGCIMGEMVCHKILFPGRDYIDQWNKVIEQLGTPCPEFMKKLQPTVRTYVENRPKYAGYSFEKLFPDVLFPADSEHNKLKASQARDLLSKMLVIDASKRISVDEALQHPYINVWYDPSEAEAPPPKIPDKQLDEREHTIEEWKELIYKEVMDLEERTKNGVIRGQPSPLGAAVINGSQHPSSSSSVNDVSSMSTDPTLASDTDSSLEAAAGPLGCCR

[14] = target: Proto-oncogene tyrosine-protein kinase ROS (Homo sapiens) (UniProt P08922); assay: Inhibition of human Ros kinase at 1 uM relative to control; values are per cent of control
[15] = target: Tyrosine-protein kinase Yes (Homo sapiens) (UniProt P07947); assay: Inhibition of human Yes kinase at 1 uM relative to control; values are per cent of control
Tyrosine-protein kinase Yes (Homo sapiens), sequence (P07947 2-543 limits assumed): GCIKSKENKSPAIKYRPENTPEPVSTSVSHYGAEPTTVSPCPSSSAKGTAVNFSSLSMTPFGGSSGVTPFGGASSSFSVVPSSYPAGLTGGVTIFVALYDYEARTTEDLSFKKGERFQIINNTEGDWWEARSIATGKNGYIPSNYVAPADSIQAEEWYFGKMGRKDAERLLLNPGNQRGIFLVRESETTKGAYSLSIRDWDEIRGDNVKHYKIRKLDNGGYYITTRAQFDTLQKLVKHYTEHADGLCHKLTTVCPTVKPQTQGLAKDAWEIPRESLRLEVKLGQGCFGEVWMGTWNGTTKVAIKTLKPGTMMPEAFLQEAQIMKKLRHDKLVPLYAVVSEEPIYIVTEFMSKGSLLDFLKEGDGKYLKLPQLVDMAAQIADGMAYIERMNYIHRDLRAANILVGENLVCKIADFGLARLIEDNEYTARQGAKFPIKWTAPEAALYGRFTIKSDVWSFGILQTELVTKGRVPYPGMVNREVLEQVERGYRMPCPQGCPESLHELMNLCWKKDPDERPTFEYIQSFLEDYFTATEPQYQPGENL

[16] = species on record: Homo sapiens; assay: Inhibition of human CDK2/Cyclin E at 1 uM relative to control; values are per cent of control
[17] = target: BDNF/NT-3 growth factors receptor (Homo sapiens, UniProt Q16620); assay: Residual activity of human TrkB at 1 uM relative to control
BDNF/NT-3 growth factors receptor, sequence (Q16620 32-822 limits assumed): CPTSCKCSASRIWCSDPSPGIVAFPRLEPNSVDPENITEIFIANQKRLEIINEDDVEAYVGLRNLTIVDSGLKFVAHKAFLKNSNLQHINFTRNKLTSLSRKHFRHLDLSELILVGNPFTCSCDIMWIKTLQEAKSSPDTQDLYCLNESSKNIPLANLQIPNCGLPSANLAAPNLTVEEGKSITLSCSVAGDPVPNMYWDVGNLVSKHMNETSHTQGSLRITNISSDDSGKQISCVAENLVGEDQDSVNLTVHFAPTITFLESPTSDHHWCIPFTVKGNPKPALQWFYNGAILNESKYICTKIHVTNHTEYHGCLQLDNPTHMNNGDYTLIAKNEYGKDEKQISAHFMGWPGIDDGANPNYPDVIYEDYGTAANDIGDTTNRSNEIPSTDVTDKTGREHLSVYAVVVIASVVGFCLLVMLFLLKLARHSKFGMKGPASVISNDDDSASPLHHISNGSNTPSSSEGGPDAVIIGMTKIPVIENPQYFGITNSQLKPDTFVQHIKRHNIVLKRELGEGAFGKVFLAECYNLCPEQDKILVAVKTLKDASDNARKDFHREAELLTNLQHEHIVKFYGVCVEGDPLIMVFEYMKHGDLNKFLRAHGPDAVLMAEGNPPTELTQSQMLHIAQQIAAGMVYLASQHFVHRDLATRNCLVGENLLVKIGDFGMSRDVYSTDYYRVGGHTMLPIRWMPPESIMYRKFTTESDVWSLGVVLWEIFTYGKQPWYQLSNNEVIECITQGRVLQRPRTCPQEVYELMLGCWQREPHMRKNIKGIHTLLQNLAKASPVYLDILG

residual activity [1] [%] | residual activity [2] [%] | residual activity [3] [%] | residual activity [4] [%] | residual activity [5] [%] | residual activity [6] [%] | residual activity [7] [%] | residual activity [8] [%] | residual activity [9] [%] | residual activity [10] [%] | residual activity [11] [%] | residual activity [12] [%] | residual activity [13] [%] | residual activity [14] [%] | residual activity [15] [%] | residual activity [16] [%] | residual activity [17] [%] | SMILES
86 | 106 | 75 | 86 | 92 | 128 | 21 | 59 | 96 | 36 | 95 | 104 | 102 | 79 | 96 | 54 |  | CN(C)c1nc2ccc1CCCn1cc(c3ccccc31)C1=C(C(=O)NC1=O)c1cn(c3ccccc13)CC2
71 | 113 | 84 | 118 | 133 | 124 | 27 | 89 | 100 | 58 | 95 | 119 | 105 | 108 | 79 | 84 | 98 | CN(C)c1cc2cc(n1)CCCn1cc(c3ccccc31)C1=C(C(=O)NC1=O)c1cn(c3ccccc13)CCC2
77 | 110 | 114 | 104 | 132 | 125 | 29 | 86 | 99 | 38 | 103 | 114 | 108 | 117 | 58 | 88 | 105 | O=C1NC(=O)C2=C1c1cn(c3ccccc13)CCCc1cc(nc(N3CCCC3)c1)CCCn1cc2c2ccccc21
85 | 126 | 117 | 102 | 121 | 130 | 33 | 106 | 90 | 104 | 99 | 99 | 104 | 105 | 43 | 88 | 106 | O=C1NC(=O)C2=C1c1cn(c3ccccc13)CCCc1ccc(c(N3CCCC3)n1)CCCn1cc2c2ccccc21
